Experimental data as given in paper PMC6973020, “Quinoline‐Conjugated Ruthenacarboranes: Toward Hybrid Drugs with a Dual Mode of Action” (Chemmedchem, 2019).
“Also recorded” adds a separate entry of the source.

How the values were obtained:
[1] = test system: MCF‐7 cells; assay: DAPI staining, fluorescence microscopy, MCF‐7; assay type: cell-based, human; settings: MCF‐7, 20 μM, 72 h
Protocol: Flow cytometry. For gaining better insights into the mechanisms of action of the ruthenium complexes, MCF‐7 and LN229 cells incubated with an IC50 dose of 3 or 4, were analyzed via flow cytometry. Several staining protocols were carried out in parallel, in independent experiments: i) AnnV/PI for the detection of apoptotic cell death, ii) AO for the detection of acidic vacuoles, iii) ApoStat for checking caspase activation, iv) CFSE for detecting interference with cellular proliferation, and v) DAPI for the detection of morphological signs of apoptosis. Untreated cells or cells treated only with BSA (control) were also measured, as reference for BSA‐free and BSA‐containing drug formulations, respectively. […] Channels FL1 (green emission), FL2 (orange emission) and/or FL3 (dark red emission) were used for fluorescence detection, according to the specific staining agent. Sideward Scatter (SSC) for MCF‐7 cells treated with 4 or BSA−4 was also analyzed, with respect to the control, for detection of shifts of cell granularity. […]
FCS, 2 mM L‐glutamine, 0.01% sodium pyruvate and antibiotics, at 37 °C in a humidified atmosphere with 5% CO2. […] Cells were counted and seeded in 96‐well plates and incubated overnight, as described above. […]
Staining Protocols for Flow Cytometric Analysis. […] Finally, cells were washed in PBS, resuspended in PBS (or AnnV‐binding buffer for AnnV/PI), and analysed. […]

[2] = Stability in water‐containing DMSO‐d6 (NMR spectroscopy); assay type: physicochemical; settings: in air, 1H and 11B{1H} NMR, over one month
Protocol: NMR spectroscopy. To determine the stability in biocompatible organic solvents, 3–5 (each ca. 3 mg) were dissolved in water‐containing DMSO‐d6 (0.6 mL) in air at room temperature, and periodically frozen (4–5 °C) and unfrozen. The solutions were analyzed with ^1H and ^11B{^1H} NMR spectroscopy over a period of one month.

Substance | morphological signs of apoptosis (DAPI) [1] | stability in water‐containing DMSO‐d6 solution [2]
closo ‐[3‐(η^6‐p‐Cymene)‐1‐(quinolin‐8‐yl‐acetate)‐3,1,2‐RuC2B9H10] [Compound 4] | sparse morphological signs of apoptosis | stable; also recorded: sufficient chemical stability
closo‐ [Compound 3, closo‐ [3‐(η^6‐p‐Cymene)‐1‐(CH2COOH)‐3,1,2‐RuC2B9H10]] | sparse morphological signs of apoptosis | stable; also recorded: sufficient chemical stability
